Test results from patent US8637263B1, “Assay for determination of compounds having anti-emetic activity” (Epiomed Therapeutics, Inc., priority 2010, dated 2014).
Structures can show the parent of a compound that is named as a salt.

System: xylazine-induced emesis
Assay: Xylazine-induced emesis in cats, with defensive behavior/anxiety scoring
Type: in vivo
Details: for anxiety 15 minutes after treatment / protection against xylazine-induced emesis / cats that vomited: FIG. 1, female cats; for protection against xylazine-induced emesis / cats that vomited: observed 30 min; for Defensive Behavior Scale / Mean Defensive Score / % Protection (vomiting) / Mean Latency (to retch/vomit): cats; for % Protection (vomiting) / Mean Latency (to retch/vomit): xylazine 0.66 mg/kg; for anxiety-inducing effect in test subjects / effectiveness in preventing chemically-induced emesis: administered alone, summary statement
Protocol: […], 0.66 mg/kg xylazine was administered subcutaneously, and the test subjects where then observed for 30 minutes.
Cats not susceptible to motion sickness were assigned to the xylazine testing group. Xylazine stimulates receptors on a pathway different from that used by motion sickness and thus served as a test of the generality of anti-emetic effects observed with motion testing.
Prior to the evaluation of anti-emetic compounds, the production of an emetic response by xylazine in felines was confirmed in the laboratory. Cats were injected subcutaneously with either a freshly prepared solution of 0.66 mg/kg of xylazine in 0.9% sodium chloride or 0.9% sodium chloride vehicle, both adjusted to an injection volume of 0.1 ml/kg.
One week following the confirmation of an emetic response by the cats, subject cats were given either vehicle or test compound/composition in 0.9% sodium chloride or vehicle (injection volume of 0.1 ml/kg) subcutaneously, 20 minutes before administration of xylazine. […] Animals were scored using the vomit scale developed by Suri et al., 1979. Additional experiments were separated by at least a 1 week washout period.
A. Vomit Scale Scoring: • 1. Sal I (licking—parasympathetic): 1 pt • 2. Sal II (drool, thin/frothy—early sympathetic): 2 pts • 3. Sal III (stringy saliva, dangles—sympathetic): 4 pts • 4. Defection: 8 pts • 5. Urination: 8 pts • 6. Wretch/vomiting: 16 pts
B. Defensive Behavior Scale: • 1. No defensiveness: normal behavior; • 2. Slight defensiveness: retreating to the rear of the cage when approached and/or growling when being carried; • 3. […] Strong defensiveness: vigorous clawing and biting to prevent being handled. IV. Statistical Methods
Dose response curves were analyzed by Cochran's Q-test to establish significant effects. Paired comparisons were made using McNemar's test. Tests for line parallelism, relative potency and ED50 were based on least squares regression in a program for pharmacological statistics. The data from the nonparametric rating scale was analyzed using Friedman's analysis of variance model (ANOVA).

[1] = 0.08 mg/kg SC 15 min before xylazine 0.66 mg/kg SC

## CCCN(CCC)C1CCc2cccc(O)c2C1 (racemic) [R/S-(+/−)-DPAT, (±)-8-Hydroxy-2-(dipropylamino)tetralin]
0.16 mg/kg SC
  anxiety 15 minutes after treatment: moderate level of anxiety
  Defensive Behavior Scale: Moderate
  Mean Defensive Score: 2.0
  % Protection (vomiting): 100.00%
0.16 mg/kg SC 15 min before xylazine 0.66 mg/kg SC
  protection against xylazine-induced emesis: 100%

## CCCN(CCC)[C@@H]1CCc2cccc(O)c2C1 [R-(+)-DPAT, R(+)-8-Hydroxy-2-(dipropylamino)tetralin hydrobromide]
0.08 mg/kg SC
  anxiety 15 minutes after treatment: extreme level of anxiety
  Defensive Behavior Scale: Strong
  Mean Defensive Score: 3.0
  % Protection (vomiting): 100.00%
[1]
  cats that vomited: none of the cats vomited
  anxiety-inducing effect in test subjects: moderate to strong
  effectiveness in preventing chemically-induced emesis: 100%
0.02 mg/kg SC
  Defensive Behavior Scale: Moderate
  Mean Defensive Score: 2.0
  % Protection (vomiting): 100.00%
0.04 mg/kg SC
  Defensive Behavior Scale: Strong
  Mean Defensive Score: 3.0
  % Protection (vomiting): 100.00%

## CCCN(CCC)[C@H]1CCc2cccc(O)c2C1 [S-(−)-DPAT, S(−)-8-Hydroxy-2-(dipropylamino)tetralin hydrobromide]
0.08 mg/kg SC
  anxiety 15 minutes after treatment: did not show any anxiety
  Defensive Behavior Scale: None
  % Protection (vomiting): 75.00%
  Mean Latency (to retch/vomit): 1.58 min
[1]
  cats that vomited: 40%
  protection against xylazine-induced emesis: 60%
  anxiety-inducing effect in test subjects: no anxiety or only slight anxiety
  effectiveness in preventing chemically-induced emesis: not fully effective
0.16 mg/kg SC
  Defensive Behavior Scale: None
  % Protection (vomiting): 85.71%
  Mean Latency (to retch/vomit): 0.82 min
0.32 mg/kg SC
  Defensive Behavior Scale: Slight
  Mean Defensive Score: 1.0
  % Protection (vomiting): 80.00%
  Mean Latency (to retch/vomit): 1.00 min
